{
  "source": "patent US12054449B2",
  "about": "“Phenylcarbamate crystalline form and method for manufacturing the same” (BIO-PHARM SOLUTIONS CO., LTD., priority 2021, dated 2024)",
  "assay_type_in_all_cases": "physicochemical",
  "key": {"[1]": {"assay": "Melting and cooling of Pattern 1 (DSC A experiment; melting and rapid cooling), degradation by 1H NMR/UPLC", "experimental": "A portion of ED01748-006-001-00 was heated in a differential scanning calorimeter at 10° C./min to 110° C., and then cooled to 30° C. at 50° C./min. The contents of a DSC pan were analyzed by ^1H NMR.\nEach (about 10 mg) of two ED01748-006-001-00 samples was put into a vial, and then into a drying pistol which had been preheated to 110° C. for 10 minutes under ambient pressure. The molten sample was removed, followed by rapid cooling with dry ice. The glass material from the first sample was rapidly crystallized by impacting a part that characterized it. As a result of XRPD analysis, the glass material was identified as Pattern 1 (FIG. 7)."}, "[2]": {"assay": "Thermodynamic solubility by UPLC in biological media (FaSSGF, FaSSIF)", "conditions": "thermodynamic from solid, 37° C., 24 h orbital shaker, all solids dissolved", "experimental": "A thermodynamic solubility in water was determined by providing a suitable concentration of compound prepared by suspending a sufficient compound in water or buffer according to estimated solubilities of the medium and the compound. Quantification was done by UPLC with reference to a standard calibration curve. A solubility was calculated with QuanLynx using a peak area determined by the integration of a peak found at the same retention time as the main peak in the standard injection.\nTo measure the solubility of ED01748-006-001-00 Pattern 1, experiments were carried out in biological media (Fasted simulated gastric fluid (FaSSGF) and Fasted simulated intestinal fluid (FaSSIF)) at 37° C. […] each of samples was dispersed into each of four vials, 1 mL each of FaSSGF and FaSSIF was added to each of the two vials and incubated in an orbital shaker for 24 hours. After incubation, all solids in each sample were dissolved, and the solubility was measured as follows."}, "[3]": {"assay": "Competitive slurry experiment for Pattern 1, Pattern 3, Pattern 6 and Pattern 11", "experimental": "A mixture of Pattern 1 and Pattern 3 (ED01748-028-003-00, 10 mg each) was dispensed into four vials, and Pattern 6 (ED01748-034-002-00, 5 mg) and Pattern 11 (ED01748-037-002-00, 5 mg) were added to respective vials. Each sample was treated with 300 μL of a filtered saturated solution of Pattern 1 (ED01748-006-001-00) prepared in DIPE or heptane. The resulting slurries were stirred at room temperature and 50° C. A small sample was periodically removed and analyzed by)(RFD, followed by monitoring as described in the following table.\nAfter analysis, the solid was returned to the vial, and a saturated solution was additionally injected as needed to maintain the slurries. After 25 days, the purity of the solid material obtained in the heptane experiment was confirmed by UPLC, and no significant decrease in purity was shown by UPLC."}, "[4]": {"assay": "Change of crystalline form on standing or drying (XRPD)", "conditions": "left overnight on the XRPD disc under laboratory conditions", "experimental": "XRPD patterns were detected by CuKα irradiation (30 kV, 10 mA) using a Bruker AXS D2 diffractometer. The analysis was performed using θ-θ geometry and a LynxEye detector at 5 to 42° 2θ with a step size of 0.024° 2θ at 0.1 sec/step.\nSamples were run at ambient conditions and prepared as flat specimens using powder received without grinding. About 1 to 2 mg of the sample was lightly pressed on a silicon wafer to obtain a flat surface."}, "[5]": {"assay": "Gravimetric vapor sorption (GVS)", "experimental": "Sorption isotherms were obtained using an SMS DVS intrinsic water absorption analyzer controlled by SMS Analysis Suite software. A sample temperature was maintained at 25° C. throughout. Humidity was controlled by a mixed stream of dry and wet nitrogen with a total flow rate of 200 mL/min. The relative humidity was measured with a calibrated Rotronic probe (dynamic range: 1.0-100% RH) located near the sample. The weight change (mass relaxation) of the sample as a function of % RH was continuously monitored using a microbalance (accuracy±0.005 mg). 5 to 20 mg of the sample was stored in a prepared stainless steel mesh basket under atmospheric conditions."}, "[6]": {"assay": "Storage under stress humidity (40° C./75% RH or RT/97% RH, 7 days) with XRPD, UPLC, 1H NMR"}, "[7]": {"conditions": "110° C. for 10 minutes, rapid cooling with dry ice"}},
  "note": "Entries after “also recorded” stand apart in the source; their conditions may differ. Read-outs that look alike come from different tables or passages of the source.",
  "data": [
    {"smiles": "C[C@H](OC(N)=O)[C@@H](O)c1ccccc1Cl", "note": "[ED01748-006-001-00, 1-(2-chlorophenyl)-(S)-1-hydroxypropyl-(S)-2-carbamate]", "values": [
      {"measurement": "Decomposition after melting and rapid cooling (1H NMR or UPLC)", "setting": "[1]; [7]", "value": "not significantly decomposed"},
      {"measurement": "UPLC purity after melting and rapid cooling", "setting": "[1]; [7]", "value": 98.7, "unit": "%"},
      {"measurement": "Degradation after melting and cooling (1H NMR)", "setting": "[1]; heated 10° C./min to 110° C., cooled to 30° C. at 50° C./min", "value": "no degradation or migration"},
      {"measurement": "solubility at 24 h", "setting": "[2]; fasted simulated gastric fluid (FaSSGF), fassgf or other biorelevant, fasted simulated gastric fluid, read-out: FaSSGF solubility after 24 h", "value": 16.8, "unit": "mg/mL"},
      {"measurement": "solubility at 24 h", "setting": "[2]; fasted simulated intestinal fluid (FaSSIF), fassif, fasted simulated intestinal fluid, read-out: FaSSIF solubility after 24 h", "value": 14.1, "unit": "mg/mL"},
      {"measurement": "Relative thermodynamic stability", "setting": "[3]; conclusion including heptane slurries, room temperature and 50° C., 25 days", "value": "more thermodynamically stable than Pattern 11 and Pattern 6"},
      {"measurement": "Relative thermodynamic stability", "setting": "[3]; in DIPE at room temperature and 50° C., after 1 day", "value": "more thermodynamically stable than Pattern 3, Pattern 6 and Pattern 11"},
      {"measurement": "Form by XRPD after being left overnight", "setting": "[4]", "value": "Pattern 3"},
      {"measurement": "XRPD post GVS (change in form)", "setting": "[5]; after GVS experiment", "value": "no change in morphology; also recorded: Shows no change in form by XRPD post GVS"},
      {"measurement": "GVS mass increase", "setting": "[5]; second sorption cycle, 0-90% RH, 25° C., listed as Pattern 1", "value": 0.14, "unit": "%"},
      {"measurement": "1H NMR post storage at 40° C./75% RH for 7 days", "setting": "[6]; 40° C./75% RH", "value": "Consistent with structure"},
      {"measurement": "XRPD post storage at 40° C./75% RH for 7 days (change in form)", "setting": "[6]; 40° C./75% RH", "value": "no change in morphology; also recorded: Shows no change in form by XRPD post storage"},
      {"measurement": "UPLC purity post storage at 40° C./75% RH for 7 days", "setting": "[6]; 40° C./75% RH, initial UPLC purity 98.6%", "value": 97.4, "unit": "%"},
      {"measurement": "XRPD post storage at 40° C./75% RH for 7 days (change in form)", "setting": "[6]; 40° C./75% RH, listed as Pattern 1", "value": "no morphological change"},
      {"measurement": "1H NMR purity post storage at RT/97% RH for 7 days", "setting": "[6]; RT/97% RH", "value": "Consistent with structure"},
      {"measurement": "XRPD post storage at RT/97% RH for 7 days (change in form)", "setting": "[6]; RT/97% RH", "value": "no change in morphology; also recorded: Shows no change in form by XRPD post storage"},
      {"measurement": "UPLC purity post storage at RT/97% RH for 7 days", "setting": "[6]; RT/97% RH, initial UPLC purity 98.6%", "value": 97.7, "unit": "%"},
      {"measurement": "XRPD post storage at RT/97% RH for 7 days (change in form)", "setting": "[6]; RT/97% RH, listed as Pattern 1", "value": "no morphological change"}
    ]}
  ]
}
